Reference: patent US9187426B2, “Organic compounds” (Novartis AG, priority 2008, dated 2015)

Work on `Cn1ccc(CNC(=O)c2ccnc(N3CCN(Cc4ccc(F)cc4)C3=O)c2)n1` [Example 14.6, 2-(3-(4-fluorobenzyl)-2-oxoimidazolidin-1-yl)-N-((1-methyl-1H-pyrazol-3-yl)methyl)isonicotinamide] yielded a melting point of 79 to 81 °C.

Compound `Cc1nn(C)c(C)c1CNC(=O)c1ccnc(N2CCN(Cc3ccc(F)cc3)C2=O)c1` [Example 14.7, 2-(3-(4-fluorobenzyl)-2-oxoimidazolidin-1-yl)-N-((1,3,5-trimethyl-1H-pyrazol-4-yl)methyl)isonicotinamide] has a melting point of 179 to 181 °C.

For `Cn1cc(CNC(=O)c2ccnc(N3CCN(Cc4ccc(F)cc4)C3=O)c2)cn1` [Example 14.8, 2-(3-(4-fluorobenzyl)-2-oxoimidazolidin-1-yl)-N-((1-methyl-1H-pyrazol-4-yl)methyl)isonicotinamide], the melting point was 165 to 166 °C.

Work on `O=C(NCc1cc[nH]n1)c1ccnc(N2CCN(Cc3ccc(F)cc3)C2=O)c1` [Example 14.9, N-((1H-pyrazol-3-yl)methyl)-2-(3-(4-fluorobenzyl)-2-oxoimidazolidin-1-yl)isonicotinamide] yielded a melting point of 178 to 180 °C.

Compound `Cc1cc(CNC(=O)c2ccnc(N3CCN(Cc4ccc(F)cc4)C3=O)c2)nn1C` [Example 14.11, N-((1,5-dimethyl-1H-pyrazol-3-yl)methyl)-2-(3-(4-fluorobenzyl)-2-oxoimidazolidin-1-yl)isonicotinamide] has a melting point of 150 to 152 °C.

For `O=C(NC[C@H](O)c1ccccc1)c1ccnc(N2CCN(Cc3ccc(F)cc3)C2=O)c1` [Example 14.12, (R)-2-(3-(4-fluorobenzyl)-2-oxoimidazolidin-1-yl)-N-(2-hydroxy-2-phenylethyl)isonicotinamide], the melting point was 97 to 99 °C.

`Cc1nc(CNC(=O)c2ccnc(N3CCN(Cc4ccc(F)cc4)C3=O)c2)cs1` [Example 14.13, 2-(3-(4-fluorobenzyl)-2-oxoimidazolidin-1-yl)-N-((2-methylthiazol-4-yl)methyl)isonicotinamide] gave a melting point of 76 to 78 °C.

In the case of `O=C(NCc1ccon1)c1ccnc(N2CCN(Cc3ccc(F)cc3)C2=O)c1` [Example 14.14, 2-(3-(4-fluorobenzyl)-2-oxoimidazolidin-1-yl)-N-(isoxazol-3-ylmethyl)isonicotinamide], the melting point is reported as 127 to 129 °C.

Work on `O=C(NCc1csc(C(F)(F)F)n1)c1ccnc(N2CCN(Cc3ccc(F)cc3)C2=O)c1` [Example 14.15, 2-(3-(4-fluorobenzyl)-2-oxoimidazolidin-1-yl)-N-((2-(trifluoromethyl)thiazol-4-yl)methyl)isonicotinamide] yielded a melting point of 66 to 68 °C.

`Cc1nc(-c2ccccc2)sc1CNC(=O)c1ccnc(N2CCN(Cc3ccc(F)cc3)C2=O)c1` [Example 14.16, 2-(3-(4-fluorobenzyl)-2-oxoimidazolidin-1-yl)-N-((4-methyl-2-phenylthiazol-5-yl)methyl)isonicotinamide] gave a melting point of 182 to 184 °C.

Compound `O=C(NCc1ccccc1)c1ccnc(N2CCN(Cc3ccc(F)cc3)C2=O)c1` [Example 15, N-benzyl-2-(3-(4-fluorobenzyl)-2-oxoimidazolidin-1-yl)isonicotinamide] has a melting point of 167 to 169 °C.

For `O=C(NCc1cccnc1)c1ccnc(N2CCN(Cc3ccc(F)cc3)C2=O)c1` [Example 15.1, 2-(3-(4-fluorobenzyl)-2-oxoimidazolidin-1-yl)-N-(pyridin-3-ylmethyl)isonicotinamide], the melting point was 153 to 155 °C.

`O=C(NCc1ccncc1)c1ccnc(N2CCN(Cc3ccc(F)cc3)C2=O)c1` [Example 15.2, 2-(3-(4-fluorobenzyl)-2-oxoimidazolidin-1-yl)-N-(pyridin-4-ylmethyl)isonicotinamide] gave a melting point of 205 to 207 °C.

Compound `O=C(NCC1CC1)c1ccnc(N2CCN(Cc3ccc(F)cc3)C2=O)c1` [Example 15.5, N-(cyclopropylmethyl)-2-(3-(4-fluorobenzyl)-2-oxoimidazolidin-1-yl)isonicotinamide] has a melting point of 135 to 137 °C.
